ChEMBL document CHEMBL4765365, “Design, synthesis and antitumour evaluation of pyrrolo[1,2-f]-phenanthridine and dibenzo[f,h]pyrrolo[1,2-b]isoquinoline derivatives” (Eur J Med Chem, 2020)
The source made the active and inactive calls. The rule behind the calls is not given here.

Tests used:
[1] = system: CEM-VLB; assay: Cytotoxicity against human CEM-VLB cells assessed as reduction in cell viability incubated for 72 hrs by XTT assay; type: functional, cell-based
[2] = Cytotoxicity against human PacaS1 cells assessed as reduction in cell viability incubated for 72 hrs by XTT assay; type: functional, cell-based; conditions: PacaS1, 72 h
[3] = system: dsDNA; assay: Induction of pBR322 DNA interstand crosslink at 1 to 20 uM incubated for 2 hrs by agarose gel electrophoresis assay; conditions: dose 1-20 µM
[4] = system: HCT-116; assay: Cytotoxicity against human HCT-116 cells assessed as reduction in cell viability incubated for 72 hrs by XTT assay; type: functional, cell-based; conditions: HCT-116, 72 h
[5] = system: CCRF-CEM; assay: Cytotoxicity against human CCRF-CEM cells assessed as reduction in cell viability incubated for 72 hrs by XTT assay; type: functional, cell-based
[6] = system: NCI-H1650; assay: Cytotoxicity against human NCI-H1650 cells assessed as reduction in cell viability incubated for 72 hrs by XTT assay; type: functional, cell-based; conditions: NCI-H1650, 72 h
[7] = system: NCI-H460; assay: Cytotoxicity against human NCI-H460 cells assessed as reduction in cell viability incubated for 72 hrs by XTT assay; type: functional, cell-based; conditions: NCI-H460, 72 h

Row | SMILES | IC50 [1] | IC50 [2] | Activity [3] | IC50 [4] | IC50 [5] | IC50 [6] | IC50 [7]
1 | CCc1c(CO)c(CO)c2n1Cc1c(c3ccccc3c3ccccc13)C2 | 1.08 µM | 2.66 µM | Active | 2.7 µM | 1.38 µM | 2.39 µM | 1.33 µM
2 | COc1ccc(-c2c(CO)c(CO)c3n2Cc2c(c4ccccc4c4ccccc24)C3)cc1 | 2.83 µM |  |  |  | 2.99 µM |  | 
3 | CCNC(=O)OCc1c(COC(=O)NCC)c2c3ccccc3c3ccccc3n2c1C | 0.37 µM | 2.26 µM |  | 2.1 µM | 0.37 µM | 4.47 µM | 1.2 µM
4 | CC(C)NC(=O)OCc1c(COC(=O)NC(C)C)c2c3ccccc3c3ccccc3n2c1-c1ccccc1 | 4.48 µM | 13.8 µM |  | 16.2 µM | 3.15 µM | 16.3 µM | 14.9 µM
5 | COc1ccc(-c2c(CO)c(CO)c3c4ccccc4c4ccccc4n23)cc1 | 4.77 µM |  |  |  | 6.34 µM |  | 
6 | COc1ccc(-c2c(COC(=O)NC(C)C)c(COC(=O)NC(C)C)c3c4ccccc4c4ccccc4n23)cc1 | 2.76 µM |  |  |  | 2.19 µM |  | 
7 | CCNC(=O)OCc1c(COC(=O)NCC)c2c3ccccc3c3ccccc3n2c1-c1ccc(OC)cc1 | 2.85 µM |  |  |  | 3.01 µM |  | 
8 | CCNC(=O)OCc1c(COC(=O)NCC)c2c3ccccc3c3ccccc3n2c1-c1ccc(F)cc1 | 3.4 µM |  |  |  | 3.41 µM |  | 
9 | CCNC(=O)OCc1c(COC(=O)NCC)c2c3ccccc3c3ccccc3n2c1CC | 1.68 µM | 5.05 µM |  | 8.53 µM | 1.89 µM | 10.1 µM | 9.09 µM
10 | CCc1c(CO)c(CO)c2c3ccccc3c3ccccc3n12 | 2.89 µM | 6.2 µM |  | 11.5 µM | 7.39 µM | 13.6 µM | 9.48 µM
11 | CC(C)NC(=O)OCc1cn2c3ccccc3c3ccccc3c2c1COC(=O)NC(C)C | 2.21 µM | 15.3 µM |  | 2.27 µM | 1.75 µM | 9.62 µM | 7.2 µM
12 | OCc1c(CO)c2c3ccccc3c3ccccc3n2c1-c1ccc(F)cc1 | 6.44 µM |  |  |  | 8.09 µM |  | 
13 | CCc1c(COC(=O)NC(C)C)c(COC(=O)NC(C)C)c2c3ccccc3c3ccccc3n12 | 1.55 µM | 4.58 µM |  | 16.2 µM | 1.89 µM | 10.2 µM | 4.98 µM
14 | Cc1c(CO)c(CO)c2c3ccccc3c3ccccc3n12 | 0.55 µM | 3.5 µM | Active | 1.88 µM | 0.91 µM | 4.46 µM | 2.87 µM
15 | Cc1c(CO)c(CO)c2n1Cc1c(c3ccccc3c3ccccc13)C2 | 0.34 µM | 1.8 µM | Active | 1.57 µM | 0.36 µM | 2.69 µM | 0.18 µM
16 | OCc1c(CO)c2c3ccccc3c3ccccc3n2c1-c1ccccc1 | 10.9 µM | 36.7 µM |  | 73.3 µM | 9.82 µM | 39 µM | 37.5 µM
17 | OCc1c(CO)c(-c2ccc(F)cc2)n2c1Cc1c(c3ccccc3c3ccccc13)C2 | 6.14 µM |  |  |  | 6.5 µM |  | 
18 | Cc1c(COC(=O)NC(C)C)c(COC(=O)NC(C)C)c2c3ccccc3c3ccccc3n12 | 0.34 µM | 1.8 µM |  | 2.12 µM | 0.35 µM | 5.17 µM | 1.19 µM
19 | CC[C@]1(O)C[C@@H]2CN(CCc3c([nH]c4ccccc34)[C@@](C(=O)OC)(c3cc4c(cc3OC)N(C)[C@H]3[C@@](O)(C(=O)OC)[C@H](OC(C)=O)[C@]5(CC)C=CCN6CC[C@]43[C@@H]65)C2)C1 [VINBLASTINE] | 0.393 µM |  |  |  | 0.00141 µM |  | 
20 | CC(C)NC(=O)OCc1c(COC(=O)NC(C)C)c2c3ccccc3c3ccccc3n2c1-c1ccc(F)cc1 | 3.17 µM |  |  |  | 4.1 µM |  | 
21 | OCc1c(CO)c(-c2ccccc2)n2c1Cc1c(c3ccccc3c3ccccc13)C2 | 3.66 µM | 4.45 µM |  | 5.99 µM | 3.21 µM | 7.95 µM | 2.34 µM
22 | CCNC(=O)OCc1c(COC(=O)NCC)c2c3ccccc3c3ccccc3n2c1-c1ccccc1 | 2.48 µM | 11.1 µM |  | 21 µM | 4.09 µM | 18.2 µM | 9.03 µM
23 | CCNC(=O)OCc1cn2c3ccccc3c3ccccc3c2c1COC(=O)NCC | 1.24 µM | 4.41 µM |  | 1.8 µM | 1.28 µM | 5.73 µM | 4.25 µM
